From patent US20060063736A1, “Compositions and methods for inhibiting mucin-type O-linked glycosylation” (priority 2004, published 2006)

Biological target: T1, mppGalNAcT-1 (Mus musculus, UniProt O08912)
T1 construct: plasmids encoding truncated secreted ppGalNAcTs-1 to −5, -7, -10 and -11; made in house; host or cells: COS-7
T1 sequence (O08912 29-559 limits assumed): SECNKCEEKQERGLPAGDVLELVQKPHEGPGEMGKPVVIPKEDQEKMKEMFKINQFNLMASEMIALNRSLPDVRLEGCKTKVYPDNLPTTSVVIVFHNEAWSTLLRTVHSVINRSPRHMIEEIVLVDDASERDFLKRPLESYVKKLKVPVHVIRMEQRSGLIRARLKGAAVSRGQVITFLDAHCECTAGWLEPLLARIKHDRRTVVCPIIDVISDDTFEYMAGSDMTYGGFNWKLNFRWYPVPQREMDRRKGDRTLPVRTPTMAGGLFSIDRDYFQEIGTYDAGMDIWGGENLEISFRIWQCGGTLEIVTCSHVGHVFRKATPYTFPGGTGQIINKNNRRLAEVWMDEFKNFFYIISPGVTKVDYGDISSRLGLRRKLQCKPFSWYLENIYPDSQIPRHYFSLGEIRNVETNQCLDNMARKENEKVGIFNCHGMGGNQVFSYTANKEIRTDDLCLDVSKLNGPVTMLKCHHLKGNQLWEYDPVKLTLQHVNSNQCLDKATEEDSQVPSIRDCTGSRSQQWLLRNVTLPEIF
Experiment: ELLA for ppGalNAcTs, mppGalNAcT-1
Format: biochemical, murine
Settings: for IC50: ELLA, 20 μM UDP-GalNAc, 50 μM EA2 peptide 4; for mode of inhibition with respect to UDP-GalNAc: mppGalNAcT-1; for Ki: mppGalNAcT-1, with respect to UDP-GalNAc, read-out: KI versus UDP-GalNAc
Protocol: COS-7 cells were transiently transfected with plasmids encoding truncated secreted ppGalNAcTs-1 to −5, -7, -10 and -11 as previously described. Hagen et al. (1997) J. Biol. Chem. 272:13843-13848. The crude conditioned medium was used as the enzyme source.
Standard reaction conditions for ppGalNAcT assays were as follows. The reaction mixture contained the following components in a final volume of 25 μL: 10 mM MnCl2, 40 mM sodium cacodylate, 40 mM β-mercaptoethanol, 0.1% Triton X-100, pH 6.5, 5 μL of conditioned media, and various concentrations of EA2 peptide 4, UDP-GalNAc and inhibitor. All uridine-based compounds were dissolved in dimethyl sulfoxide (DMSO). The concentration of DMSO in the reaction mixture was limited to 2% (v/v), as higher concentrations decreased ppGalNAcT activity. For inhibitor assays, reaction mixtures for positive controls also contained 2% DMSO. Unless otherwise stated, inhibitor assays were performed using 20 μM UDP-GalNAc and 50 μM EA2 peptide 4, the KM values for both substrates. Reactions were incubated at 37° C. and were terminated by the addition of 10 μL of 0.1 M EDTA. All experiments were performed in duplicate. Reaction rates were linear over the period monitored (20-30 min).
96-Well NeutrAvidin-coated plates were prewashed 3 times with 200 μL of wash buffer (25 mM Tris, 150 mM NaCl, 0.1% bovine serum albumin (BSA) (w/v), and 0.05% Tween (v/v), pH 7.2). Reactions were then transferred to the 96-well plates, incubated for 1 hour at room temperature (rt) and subsequently washed 3 times with 200 μL of phosphate-buffered saline (PBS) containing 0.5% BSA and 0.05% Tween, pH 7.1. A 100-μL solution of HPA-HRP in standard PBS buffer (1 μg/mL, pH 7.4) was added and the reaction was incubated for 1 h at rt. After 3 washes with 200 μL of PBS, bound HPA-HRP was quantified by the addition of 100 μL of TMB peroxide solution. The solutions were incubated for 5-15 min in the dark at rt. HRP activity was terminated by the addition of 50 μL of 2 N H2SO4 and the resulting solution was analyzed at 450 nm using a UV/Vis microtiter plate reader. The amount of product generated by the ppGalNAcT was extrapolated from absorbance values using an equation fit to the standard curve derived from Origin 6.1 software.
In order to screen the library in high-throughput format, a non-radioactive enzyme linked lectin assay (ELLA) for ppGalNAcTs was developed. As an acceptor substrate, the EA2 peptide (PTTDSTTPAPTTK; SEQ ID NO:12), a fragment of rat submandibular mucin, was chosen. Albone et al. (1994) J. Biol. Chem. 269:16845-16852. This peptide has been previously shown to be an efficient substrate for murine (m) ppGalNAcT-1 and is preferentially glycosylated at the fourth Thr residue from the N-terminus (underlined). Ten Hagen et al. (2001, supra). Biotinylation of EA2 allowed capture of (glyco)peptides onto 96-well NeutrAvidin-coated plates. The GalNAc-modified glycopeptide product could be detected using the α-GalNAc-specific lectin Helix pomatia agglutinin (HPA) (Hammarstrom et al. (1977) Biochemistry 16:2750-2755) conjugated to horseradish peroxidase (HRP). The bound HRP was quantified by addition of a chromogenic substrate.

SMILES | IC50 [µM] | mode of inhibition with respect to UDP-GalNAc | Ki [µM]
O=c1ccn([C@@H]2O[C@H](CON=Cc3ccc(O)c(O)c3O)[C@@H](O)[C@H]2O)c(=O)[nH]1 [1-68A] | 21 ± 1 | competitive | 7.8 ± 0.1
O=C(CON=Cc1ccc(O)c(O)c1O)NC[C@H]1O[C@@H](n2ccc(=O)[nH]c2=O)[C@H](O)[C@@H]1O [2-68A] | 24 ± 2 | competitive | 7.8 ± 1
